# Measurements as given in patent US20260069596A1 (Cardiff Oncology, Inc., priority 2024, published 2026).
# Entries after “also recorded” stand apart in the source; their conditions may differ.
# What was measured:
# CYP1A2 = biological target: T1, CYP1A2 (Homo sapiens, UniProt P05177); conditions: human liver microsomes; cited from earlier work
# T1 construct: was investigated using human liver microsomes; from tissue; host or cells: human liver microsomes
# T1 sequence (P05177 1-516): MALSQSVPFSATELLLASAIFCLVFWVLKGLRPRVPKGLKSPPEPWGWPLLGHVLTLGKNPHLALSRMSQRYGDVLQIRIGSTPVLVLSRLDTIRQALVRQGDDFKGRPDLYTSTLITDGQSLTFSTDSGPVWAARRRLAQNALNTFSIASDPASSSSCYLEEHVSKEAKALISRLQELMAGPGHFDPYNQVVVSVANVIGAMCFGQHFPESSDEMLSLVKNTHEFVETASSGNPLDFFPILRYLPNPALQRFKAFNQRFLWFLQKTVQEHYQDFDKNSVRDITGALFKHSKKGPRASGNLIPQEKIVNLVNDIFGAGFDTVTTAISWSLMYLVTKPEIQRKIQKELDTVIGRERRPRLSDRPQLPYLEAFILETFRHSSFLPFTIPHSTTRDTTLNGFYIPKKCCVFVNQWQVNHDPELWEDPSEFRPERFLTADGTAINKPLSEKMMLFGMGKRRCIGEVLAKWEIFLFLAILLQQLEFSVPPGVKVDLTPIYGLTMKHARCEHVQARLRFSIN
# [1] = cited from earlier work
# [2] = system: advanced/metastatic solid tumors; conditions: single agent; cited from earlier work
# [3] = system: RAS^WT colorectal cancer patient derived xenograft (PDX) models; test: Example 2: antitumor activity in RAS^WT colorectal cancer PDX models; format: in vivo, mice
# Method: Tumor volumes (TV) were measured twice a week, and % tumor volume change (TVC) from baseline was calculated as follows: (TVi/TV0−1)×100. Tumor stasis defined as TVC between 0 and 20%, and tumor regression as TVC less than 0% at last measurement. Results are presented as mean±SEM.
smiles,measurement,setting,value
"CN1CCN(c2ccc(OC(F)(F)F)c(Nc3ncc4c(n3)-c3c(c(C(N)=O)nn3CCO)CC4)c2)CC1 [Onvansertib, 1-(2-hydroxyethyl)-8-{[5-(4-methylpiperazin-1-yl)-2-(trifluoromethoxy)phenyl]amino}-4,5-dihydro-1H-pyrazolo[4,3-h]quinazoline-3-carboxamide]",inhibitory effect against CYP1A2,CYP1A2,No significant inhibitory effects
same,DLTs,"[1]; doses of 6, 12, and 24 mg/m^2/day, oral, 5 consecutive days every 3 weeks",No DLTs
same,primary dose-limiting toxicities / primary toxicities,"[1]; phase I, patients with advanced/metastatic solid tumors",neutropenia and thrombocytopenia; also recorded: thrombocytopenia and neutropenia
same,recovery time of hematologic toxicities,[1]; reversible toxicities,≤ 3 weeks
same,best observed treatment response,[2],stable disease
same,models with tumor stasis or regression,[3]; 7 PDXs sensitive to cetuximab,five
same,models with potent antitumor activity,"[3]; PDX models sensitive to cetuximab, 71%",5/7
same,models with tumor regression (TVC less than 0%),[3]; all 20 models,11 models
same,models with tumor stasis (TVC between 0 and 20%),[3]; all 20 models,3 models
